Reference: PubChem BioAssay AID1259407 (Chemical Carcinogenesis Research Information System (CCRIS), 2018)
Calls of active or inactive are those of the source. No rule for the calls is given here.

System: CCRIS mutagenicity, Ames/micronucleus/aberration tests
Assay: CCRIS mutagenicity studies
[1] = Test System: AMES SALMONELLA TYPHIMURIUM, Strain/Indicator: TA100, Metabolic Activation: NONE, Method: PREINCUBATION
[2] = Test System: AMES SALMONELLA TYPHIMURIUM, Strain/Indicator: TA100, Metabolic Activation: NONE, Method: STANDARD PLATE
[3] = Test System: AMES SALMONELLA TYPHIMURIUM, Strain/Indicator: TA1535, Metabolic Activation: NONE, Method: STANDARD PLATE

With `CNc1ccc(N(CCO)CCO)cc1[N+](=O)[O-]` the mutagenic call (End Point: IN VITRO CHROMOSOMAL ABERRATIONS, Test System: CHO-LB CELLS, Metabolic Activation: NONE) was “inactive; negative”, the mutagenic call (End Point: IN VITRO CHROMOSOMAL ABERRATIONS, Test System: CHO-LB CELLS, Metabolic Activation: RAT, LIVER, S-9, AROCLOR 1254) was “active; positive” and the mutagenic call (Test System: AMES SALMONELLA TYPHIMURIUM, Strain/Indicator: TA97, Metabolic Activation: HAMSTER, LIVER, S-9, AROCLOR 1254 (10%), Method: PREINCUBATION) was “active; positive”. For the same compound, the mutagenic call (Test System: AMES SALMONELLA TYPHIMURIUM, Strain/Indicator: TA97, Metabolic Activation: HAMSTER, LIVER, S-9, AROCLOR 1254, Method: PREINCUBATION) was “active; positive”, the mutagenic call (Test System: AMES SALMONELLA TYPHIMURIUM, Strain/Indicator: TA97, Metabolic Activation: NONE, Method: PREINCUBATION) was “active; positive” and the mutagenic call (Test System: AMES SALMONELLA TYPHIMURIUM, Strain/Indicator: TA97, Metabolic Activation: RAT, LIVER, S-9, AROCLOR 1254 (10%), Method: PREINCUBATION) was “active; positive”. For the same compound, the mutagenic call (Test System: AMES SALMONELLA TYPHIMURIUM, Strain/Indicator: TA97, Metabolic Activation: RAT, LIVER, S-9, AROCLOR 1254, Method: PREINCUBATION) was “active; positive”, the mutagenic call (Test System: AMES SALMONELLA TYPHIMURIUM, Strain/Indicator: TA98, Metabolic Activation: HAMSTER, LIVER, S-9, AROCLOR 1254 (10%), Method: PREINCUBATION) was “active; positive” and the mutagenic call (Test System: AMES SALMONELLA TYPHIMURIUM, Strain/Indicator: TA98, Metabolic Activation: HAMSTER, LIVER, S-9, AROCLOR 1254, Method: PREINCUBATION) was “active; positive”. The mutagenic call (Test System: AMES SALMONELLA TYPHIMURIUM, Strain/Indicator: TA98, Metabolic Activation: NONE, Method: PREINCUBATION) was “active; positive”, the mutagenic call (Test System: AMES SALMONELLA TYPHIMURIUM, Strain/Indicator: TA98, Metabolic Activation: NONE, Method: STANDARD PLATE) was “inactive; negative” and the mutagenic call (Test System: AMES SALMONELLA TYPHIMURIUM, Strain/Indicator: TA98, Metabolic Activation: RAT, LIVER, S-9, AROCLOR 1254 (10%), Method: PREINCUBATION) was “active; positive”. For the same compound, the mutagenic call (Test System: AMES SALMONELLA TYPHIMURIUM, Strain/Indicator: TA98, Metabolic Activation: RAT, LIVER, S-9, AROCLOR 1254, Method: PREINCUBATION) was “active; positive”, the mutagenic call (Test System: AMES SALMONELLA TYPHIMURIUM, Strain/Indicator: TA98, Metabolic Activation: RAT, LIVER, S-9, AROCLOR 1254, Method: STANDARD PLATE) was “inactive; negative” and the mutagenic call (Test System: AMES SALMONELLA TYPHIMURIUM, Strain/Indicator: TA100, Metabolic Activation: HAMSTER, LIVER, S-9, AROCLOR 1254 (10%), Method: PREINCUBATION) was “active; positive”. The mutagenic call (Test System: AMES SALMONELLA TYPHIMURIUM, Strain/Indicator: TA100, Metabolic Activation: HAMSTER, LIVER, S-9, AROCLOR 1254, Method: PREINCUBATION) was “active; positive”, the mutagenic call [1] was “active; positive” and the mutagenic call [2] was “inactive; negative”. For the same compound, the mutagenic call (Test System: AMES SALMONELLA TYPHIMURIUM, Strain/Indicator: TA100, Metabolic Activation: RAT, LIVER, S-9, AROCLOR 1254 (10%), Method: PREINCUBATION) was “active; positive”, the mutagenic call (Test System: AMES SALMONELLA TYPHIMURIUM, Strain/Indicator: TA100, Metabolic Activation: RAT, LIVER, S-9, AROCLOR 1254, Method: PREINCUBATION) was “active; positive” and the mutagenic call (Test System: AMES SALMONELLA TYPHIMURIUM, Strain/Indicator: TA100, Metabolic Activation: RAT, LIVER, S-9, AROCLOR 1254, Method: STANDARD PLATE) was “inactive; negative”. For the same compound, the mutagenic call (Test System: AMES SALMONELLA TYPHIMURIUM, Strain/Indicator: TA1535, Metabolic Activation: HAMSTER, LIVER, S-9, AROCLOR 1254 (10%), Method: PREINCUBATION) was “inactive; negative”, the mutagenic call (Test System: AMES SALMONELLA TYPHIMURIUM, Strain/Indicator: TA1535, Metabolic Activation: HAMSTER, LIVER, S-9, AROCLOR 1254, Method: PREINCUBATION) was “inactive; negative” and the mutagenic call (Test System: AMES SALMONELLA TYPHIMURIUM, Strain/Indicator: TA1535, Metabolic Activation: NONE, Method: PREINCUBATION) was “inactive; negative”. For the same compound, the mutagenic call [3] was “inactive; negative”, the mutagenic call (Test System: AMES SALMONELLA TYPHIMURIUM, Strain/Indicator: TA1535, Metabolic Activation: RAT, LIVER, S-9, AROCLOR 1254 (10%), Method: PREINCUBATION) was “inactive; negative” and the mutagenic call (Test System: AMES SALMONELLA TYPHIMURIUM, Strain/Indicator: TA1535, Metabolic Activation: RAT, LIVER, S-9, AROCLOR 1254, Method: PREINCUBATION) was “inactive; negative”. For the same compound, the mutagenic call (Test System: AMES SALMONELLA TYPHIMURIUM, Strain/Indicator: TA1535, Metabolic Activation: RAT, LIVER, S-9, AROCLOR 1254, Method: STANDARD PLATE) was “inactive; negative”, the mutagenic call (Test System: AMES SALMONELLA TYPHIMURIUM, Strain/Indicator: TA1537, Metabolic Activation: NONE, Method: STANDARD PLATE) was “inactive; negative” and the mutagenic call (Test System: AMES SALMONELLA TYPHIMURIUM, Strain/Indicator: TA1537, Metabolic Activation: RAT, LIVER, S-9, AROCLOR 1254, Method: STANDARD PLATE) was “inactive; negative”. The mutagenic call (Test System: E. COLI, Strain/Indicator: WP2 UVRA, Metabolic Activation: NONE, Method: STANDARD PLATE) was “inactive; negative”, the mutagenic call (Test System: E. COLI, Strain/Indicator: WP2 UVRA, Metabolic Activation: RAT, LIVER, S-9, AROCLOR 1254, Method: STANDARD PLATE) was “inactive; negative” and the mutagenic call (Test System: MOUSE LYMPHOMA, Strain/Indicator: L5178Y (TK+/TK-), Metabolic Activation: RAT, LIVER, S-9, AROCLOR 1254, Method: SUSPENSION/PLATE) was “inactive; negative”. For the same compound, the mutagenic call (Test System: UDS MONKEY PRIMARY HEPATOCYTES, Strain/Indicator: THY INCORP (NON-S-PHASE), Metabolic Activation: NONE, Method: AUTORADIOGRAPHY) was “active; positive” and the mutagenic call (Test System: UDS RODENT PRIMARY HEPATOCYTES, Strain/Indicator: THY INCORP (NON-S-PHASE), Metabolic Activation: NONE, Method: AUTORADIOGRAPHY) was “active; positive”.

For `COc1cc2c(c3oc(=O)c4c(c13)CCOC4=O)[C@@H]1CCO[C@@H]1O2`, the mutagenic call [1] was “inactive; negative” and the mutagenic call (Test System: AMES SALMONELLA TYPHIMURIUM, Strain/Indicator: TA100, Metabolic Activation: RAT, LIVER, S-9, PHENOBARBITAL, Method: PREINCUBATION) was “inactive; negative”.

With `CCCCCCCCOC[N+](C)(C)Cc1ccccc1` the mutagenic call (Test System: BACILLUS SUBTILIS, Strain/Indicator: H17/REC, Metabolic Activation: NONE, Method: STANDARD PLATE) was “inactive; negative” and the mutagenic call (Test System: BACILLUS SUBTILIS, Strain/Indicator: M45, Metabolic Activation: NONE, Method: STANDARD PLATE) was “inactive; negative”.

With `C[N+](C)=c1ccc2nc3ccc(N)cc3sc-2c1` the mutagenic call (Test System: Ames Salmonella typhimurium, Strain/Indicator: TA98, Metabolic Activation: Rat, Liver, S-9, Aroclor 1254 (10%), Method: Preincubation) was “active; positive”, the mutagenic call (Test System: Ames Salmonella typhimurium, Strain/Indicator: TA98, Strain/Sex: TA98, Metabolic Activation: None, Method: Preincubation) was “active; positive” and the mutagenic call (Test System: Ames Salmonella typhimurium, Strain/Indicator: TA100, Metabolic Activation: None, Method: Preincubation) was “active; positive”. For the same compound, the mutagenic call (Test System: Ames Salmonella typhimurium, Strain/Indicator: TA100, Metabolic Activation: Rat, Liver, S-9, Aroclor 1254 (10%), Method: Preincubation) was “active; positive”, the mutagenic call (Test System: E. coli, Strain/Indicator: WPM uvrA/pKM101, Metabolic Activation: None, Method: Preincubation) was “active; positive” and the mutagenic call (Test System: E. coli, Strain/Indicator: WPM uvrA/pKM101, Metabolic Activation: Rat, Liver, S-9, Aroclor 1254 (10%), Method: Preincubation) was “active; positive”.

In the case of `CCOS(=O)(=O)c1ccc(C)cc1`, the mutagenic call (End Point: IN VITRO MICRONUCLEUS, Test System: MOUSE LYMPHOMA L5178Y CELLS, Metabolic Activation: NONE) is reported as “active; positive”, the mutagenic call (End Point: IN VITRO MICRONUCLEUS, Test System: MOUSE LYMPHOMA L5178Y CELLS, Metabolic Activation: RAT, LIVER, S-9) is reported as “active; positive” and the mutagenic call (End Point: In vitro micronucleus, Test System: Chinese Hamster Ovary (CHO-WBL) cells, Metabolic Activation: None) is reported as “active; positive (p<0.01)”. For the same compound, the mutagenic call [2] was “inactive; negative; authors describe results as weakly positive”, the mutagenic call (Test System: AMES SALMONELLA TYPHIMURIUM, Strain/Indicator: TA100, Metabolic Activation: RAT, LIVER, S-9, Method: STANDARD PLATE) was “inactive; negative; authors describe results as weakly positive” and the mutagenic call [3] was “active; positive”. For the same compound, the mutagenic call (Test System: UDS HUMAN FIBROBLASTS, Strain/Indicator: THY INCORP (NON-S-PHASE), Metabolic Activation: NONE, Method: LIQUID SCINTILLATION COUNTING) was “active; positive”.

With `CC(C)Oc1ccccc1OC(=O)N(C)N=O` the mutagenic call (End Point: In vitro chromosomal aberrations, Test System: Chinese hamster ovary (CHO-W8) cells, Metabolic Activation: None) was “active; positive (structural changes)”, the mutagenic call (Test System: CHINESE HAMSTER V-79, Strain/Indicator: V-79 (HPRT)/6-THIOGUANINE, Metabolic Activation: NONE) was “active; positive” and the mutagenic call (Test System: E. COLI WP2, Strain/Indicator: WP2, Metabolic Activation: NONE, Method: STANDARD PLATE) was “active; positive”.
